# Key:
# [1] = system: Lygus Bug [Lygus hesperus (Knight)]; assay: Lygus Bug (LB) direct spray assay, mortality 48 hours later; assay type: in vivo; conditions: adults, initial 0.05%
# Protocol: (§1) Screening was initiated at a maximal concentration level believed to be injurious to the insect population. The initial level should not be understood as representing a maximum at which a viable test for insecticidal activity can be conducted.
# (§2) Mobile insects, such as houseflies, German cockroaches, Lygus bugs, were contained for treatment in circular cardboard cages covered with cellophane on the bottom and tulle netting on the top.
# (§3) Test compounds were diluted in a 50--50 acetonewater solution. Two cubic centimeters (cc) of the compound solutions were sprayed through a DeVilbiss type EGA hand spray gun into cages each containing 10 one-month-old German cockroach nymphs.
# Lygus Bug [Lygus hesperus (Knight)], (LB)--Direct Spray Assay
# (§4) The species was treated in the same manner as the German cockroach. The cages contained one string beam pod and 10 adult Lygus bugs. The percent mortality was recorded 48 hours later. Test concentrations ranged from 0.05% down to that at which approximately 50% mortality occurs. Saltmarsh Caterpillar [Estigmene acrea (Drury)], (SMC)--Leaf Dip Assay
# (§5) A less than 50% mortality rate at the initial concentration is indicated by a "greater than" sign (>). An approximately 50% mortality rate is indicated by the initial concentration rate. Other results are the dilutions at which an LD50 was achieved.
# [2] = system: Green Peach Aphid [Myzus persicae (Sulzer)]; assay: Green Peach Aphid (GPA) plant spray assay; assay type: in vivo; conditions: spray on infested radish plants, three days
# Description: as §1
# (§6) Nasturtium plants, Tropaeolum sp., approximately five centimeters (cm) high were transplanted into sandy loam soil in three-inch clay pots. Each pot was infested with 25-50 black bean aphids of mixed ages. Twenty-four hours later the pots were sprayed to the point of run-off with 50--50 acetone-water solutions of the test compounds.
# (§7) Mortality rates were recorded after the infested plants had been held in the greenhouse for three days. Test concentrations ranged from 0.05% down to that at which 50% mortality occurs. Green Peach Aphid [Myzus persicae (Sulzer)], (GPA)
# (§8) The insecticidal properties were tested in the same manner as for black beam aphids with the substitution of the nasturtiums by radish plants, Rhaphanus sativus. German Cockroach [Blatella germanica (Linne)], (GR)--Direct Spray
# as §5
# [3] = system: Two-Spotted Mite [Tetranychus urticae (Koch)]; assay: Two-Spotted Mite (2SM) plant dip assay, mortality seven days later; assay type: in vivo; conditions: for LD50 2SM Adults: adult mites; for LD50 2SM Eggs: eggs (nymphs hatching after treatment)
# Description: (§9) Screening was initiated at a maximal concentration level believed to be injurious to the insect population. The initial level should not be understood as representing a maximum at which a viable test for insecticidal activity can be conducted. […]
# Pinto bean plants (Phaseolus vulgaris) approximately 10 cm high were transplanted into sandy loam soil in three-inch clay pots. The plants were thoroughly infested with two-spotted mites of mixed ages and sexes. Twenty-four hours after infestation the plants were inverted and dipped for 2-3 seconds in 50--50 acetone-water solutions of the test compounds.
# Mortality ratings for both adult mites and nymphs hatching after treatment were taken seven days later. Test concentrations ranged from 0.05% down to that at which 50% mortality occurs.
# as §5
# [4] = system: Southern House Mosquito Larvae (Culex pipiens quinquefasciatus); assay: Southern House Mosquito larvae (M) assay, mortality 48 hours after treatment; assay type: in vivo; conditions: third-instar larvae in aqueous solution, initial 1 ppm, read-out: LD50 M
# Protocol: as §1
# Tobacco budworms were tested in the same manner as the cabbage looper. Romaine lettuce (Latuca sativa) leaves provided the substrate. Southern House Mosquito Larvae (Culex pipiens quinquefasciatus), (M)
# Ten third-instar larvae were placed in a six ounce wax paper cup containing 100 ml of an aqueous solution of the test compounds at a concentration of 1 ppm. The treated larvae were stored at 70° F. (21.5° C.) and mortality was recorded 48 hours after treatment. Two-Spotted Mite [Tetranychus urticae (Koch)], (2SM)
# as §5
# [5] = system: German Cockroach [Blatella germanica (Linne)]; assay: German Cockroach (GR) direct spray, mortality 7 days later; assay type: in vivo; conditions: one-month-old nymphs, initial 0.1%
# Protocol: as §1, §2, §8, §3
# The percent mortality was recorded 7 days later. Test concentrations ranged from 0.1% down to that at which approximately 50% mortality occurs.
# as §5
# [6] = system: Housefly [Musca domestica (Linn.)]; conditions: topical, 48 h
# Protocol: Housefly [Musca domestica (Linn.)], (HF)--Contact Residue Assay
# Test compounds were diluted in acetone and aliquots were pipetted onto the bottom of 55×15 millimeter (mm) aluminum dishes. One ml of acetone containing 0.02% peanut oil was added to each dish to insure even spreading. After all solvents had evaporated the dishes were placed in cages each containing 25 one to two day old female houseflies. Each cage contained a sugar-water cotton plug for sustanence of the flies.
# Mortality rates were recorded after 48 hours. Test levels ranged from 10 μ/25 .female. houseflies down to that at which approximately 50% mortality occurs.
# [7] = system: Tobacco Budworm [Heliothis virescens (Fabricius)]; conditions: leaf dip, Romaine lettuce leaves
# Protocol: Mortality of the larvae was recorded 48 hours later. A piece of synthetic media was added to the dishes containing surviving larvae. […] Test concentrations ranged from 0.05% down to that at which approximately 50% mortality occurs.
# [8] = system: Cabbage Looper [Trichoplusia ni (Hubner)]; assay: Cabbage Looper (CL) leaf dip assay; assay type: in vivo; conditions: squash cotyledons, initial 0.1%
# Protocol: as §1
# (§10) Test compounds were diluted in a 50--50 acetone-water solution. Approximately 1×1.5 inch sections of curly dock (Rumex crispus) leaves were immersed in the test solution for 2-3 seconds. After drying on a wire screen, the leaves were placed in petri dishes containing a moistened piece of filter paper. Each dish was infested with 5 secondinstar saltmarsh larvae.
# (§11) Mortality of the larvae was recorded 48 hours later. A piece of synthetic media was added to the dishes containing surviving larvae. The larvae were then observed for 5 additional days for delayed effects of the test compounds. Test concentrations ranged from 0.05% down to that at which approximately 50% mortality occurs. Cabbage Looper [Trichoplusia ni (Hubner)], (CL)
# The effectiveness of the compounds was tested in the same manner as for the saltmarsh caterpillar with two exceptions. Cotyledons of hyzini squash (Calabacita abobrinha, were substituted for curly dock leaves and the initial test concentration was 0.1%. Tobacco Budworm [Heliothis virescens (Fabricius)], (TBW)
# as §5
# [9] = system: Black Bean Aphid [Aphis fabae (Scop.)]; assay: Black Bean Aphid (BBA) plant spray assay, mortality after three days; assay type: in vivo; conditions: spray on infested nasturtium plants
# Description: as §9, §6, §7, §5
# [10] = system: Saltmarsh Caterpillar [Estigmene acrea (Drury)]; assay: Saltmarsh Caterpillar (SMC) leaf dip assay; assay type: in vivo; conditions: curly dock leaves, second-instar larvae, 48 hours + 5 days
# Protocol: as §1, §4, §10, §11, §5
SMILES,LD50 LB [1],LD50 GPA [2],LD50 2SM Adults [3],LD50 2SM Eggs [3],LC50 [4],LD50 GR [5],LD50 HF [6],LD50 TBW [7],LD50 CL [8],LD50 BBA [9],LD50 SMC [10]
"CCOP(=S)(OCC)SCC(=O)N1CCN(C(=O)OC)CC1 [Compound 3, 1-N-methoxycarbo-4-N-O,O-diethylphosphorodithioylacetyl piperazine]",> .05%,.01%,< .05%,< .05%,> 1 µg/mL,> .1%,> 10 μg/25,> .1%,> .1%,.001%,–
"CCOC(=O)N1CCN(C(=O)CSP(=S)(OC)OC)CC1 [Compound 10, 1-N-ethoxycarbo-4-N-O,O-dimethylphosphorodithioylacetyl piperazine]",> .05%,.002%,.002%,.005%,1 µg/mL,> .1%,> 10 μg/25,> .05%,> .1%,.0002%,–
"CCOC(=O)N1CCN(C(=O)CSP(=S)(OC)OC)C(C)C1 (centres unmarked) [Compound 11, 1-N-ethoxycarbo-4-N'-O,O-dimethylphosphorodithioylacetyl-3-methyl piperazine]",> .05%,.03%,< .05%,< .05%,1 µg/mL,> .1%,> 10 μg/25,.1%,> .1%,.002%,.05%
"CCOC(=O)N1CCN(C(=O)CSP(=S)(OCC)OCC)CC1 [Compound 12, 1-N-ethoxycarbo-4-N-O,O-diethylphosphorodithioylacetyl piperazine]",> .05%,.008%,.001%,.002%,> 1 µg/mL,> .1%,> 10 μg/25,> .1%,> .1%,.001%,> .05%
"CCOC(=O)N1CCN(C(=O)CSP(=S)(OCC)OCC)C(C)C1 (centres unmarked) [Compound 13, 1-N-ethoxycarbo-4-N'-O,O-diethylphosphorodithioylacetyl-3-methyl piperazine]",> .05%,.008%,.003%,.006%,> 1 µg/mL,> .1%,> 10 μg/25,> .05%,> .1%,.003%,> .05%
"CCOC(=O)N1CCN(C(=O)CSP(=O)(OCC)OCC)C(C)C1 (centres unmarked) [Compound 14, 1-N-carboethoxy-4-N'-O,O-diethylphosphoromonothioylacetyl-3-methyl piperazine]",> .05%,.005%,< .05%,< .05%,> 1 µg/mL,> .1%,> 10 μg/25,> .1%,> .1%,.0005%,–
"COP(=S)(OC)SCC(=O)N1CCN(C(=O)OC(C)C)CC1 [Compound 18, 1-N-ispropoxycarbo-4-N-O,O-dimethylphosphorodithioylacetyl piperazine]",> .05%,.005%,< .05%,< .05%,1 µg/mL,> .1%,> 10 μg/25,> .1%,> .1%,.0005%,> .05%
"CCOP(=S)(OCC)SCC(=O)N1CCN(C(=O)OC(C)C)CC1 [Compound 19, 1-N-isopropoxycarbo-4-N-O,O-diethylphosphorodithioylacetyl piperazine]",> .05%,.006%,< .05%,< .05%,> 1 µg/mL,> .1%,> 10 μg/25,> .1%,> .1%,.0006%,> .05%
"CCOP(=O)(OCC)SCC(=O)N1CCN(C(=O)OC(C)C)CC1 [Compound 20, 1-N-isopropoxycarbo-4-N-O,O-diethylphosphoromonothioylacetyl piperazine]",> .05%,.008%,< .05%,< .05%,> 1 µg/mL,> .1%,> 10 μg/25,.1%,> .1%,.0005%,> .05%
"CCOP(=S)(OCC)SCC(=O)N1CCN(C(=O)Oc2ccccc2)CC1 [Compound 23, 1-N-phenyloxycarbo-4-N-O,O-diethylphosphorodithioylacetyl piperazine]",> .05%,.008%,< .05%,< .05%,1 µg/mL,> .1%,> 10 μg/25,> .1%,.1%,.002%,–
"CCOP(=S)(OCC)SCC(=O)N1CCN(C(=O)SC)CC1 [Compound 27, 1-N-methylthiocarbo-4-N-O,O-diethylphosphorodithioylacetyl piperazine]",> .05%,.01%,< .05%,< .05%,> 1 µg/mL,> .1%,> 10 μg/25,> .1%,> .1%,.001%,–
"COP(=S)(OC)SCC(=O)N1CCN(C(=O)SC(C)(C)C)CC1C (centres unmarked) [Compound 32, 1-N-carbo-t-butylthio-4-N'-O,O-dimethylphosphorodithioylacetyl-3-methyl piperazine]",–,–,> .05%,> .05%,> 1 µg/mL,–,> 10 μg/25,> .05%,–,> .05%,–
"CCOP(=S)(OCC)SCC(=O)N1CCN(C(=O)SC(C)(C)C)CC1C (centres unmarked) [Compound 33, 1-N-carbo-t-butylthio-4-N'-O,O-diethylphosphorodithioylacetyl-3-methyl piperazine]",–,–,–,–,–,–,> 10 μg/25,> .05%,–,> .005%,–
